Source: patent US20040171632A1, “Combination chemotherapy” (priority 1998, published 2004)

Experiments:
[1] = test system: colon 26 carcinoma cells; assay: apoptosis of colon 26 carcinoma cells in culture (phalloidin-FITC, flow cytometry); assay type: cell-based, mouse; conditions: for increase of apoptosis: FIG. 1; for incidence in apoptosis: second study, FIG. 2
Description: The data establish that the vehicle alone (DMSO) caused no effect on apoptosis (programmed cell death) of the colon 26 carcinoma cells. […] At the 30 nM concentration of paclitaxel, the combination caused about an 18% incidence in apoptosis.
The assay described above was repeated, and the results (see FIG. 2) confirmed that the combinations of this invention are useful to treat and control cancer. In this second study, DMSO did cause measurable cell death, somewhat similar to that observed with the 30 nM concentration of paclitaxel alone.

[2] = test system: non-small cell lung carcinoma cells (A549); conditions: Taxol alone at 10 nM; one set of experiments
Description: The colon 26 carcinoma cells were originally collected from a mouse that had undergone surgery to remove the infected section of the colon, and are now readily available from Southern Research Institute (Birmingham, Ala., USA). The cells were cultured to approximately 80% confluency on Day 0 of the assay. At 72 hours after the 80% confluency was established, dimethylsulfoxide (DMSO) was added to one set of cells to act as untreated controls. Paclitaxel at concentrations of 30 nM and 100 nM was added to other sets of cells. All of the cells were incubated at 38° C. for 48 hours, at which time MEK inhibitor 2-(2-chloro-4-iodophenylamino)-N-cyclopropylmethoxy-3,4-difluorobenzamide (PD184352), at a concentration of 1.0 micromolar, was added to one set of the DMSO control cells, and to the cells containing the two concentrations of paclitaxel. All cells were again incubated for an additional 48-hour period. The cells were harvested from the growth medium, and were fixed in ethanol. The cells were then treated with FITC (fluorescein isothiocyanate)-labeled phalloidin (Sigma). Binding of phalloidin-FITC to depolymerized actin thereby serves as a measure of apoptosis. Propidium iodide was also added to the treated and control cells for the purpose of staining all cells. The extent of apoptosis of tumor cells was measured by flow cytometry analysis. […]

In the case of `Cc1cc(I)ccc1Nc1ccc(Cl)cc1C(=O)NCCO` [Example 31, 5-Chloro-N-(2-hydroxyethyl)-2-(4-iodo-2-methyl-phenylamino)-benzamide], the melting point is reported as 120 to 121 °C.

Molecule `Cc1cc(I)ccc1Nc1cc(F)ccc1CO` [Example 49, 4-Fluoro-2-(4-iodo-2-methyl-phenylamino)-benzyl alcohol] has a melting point of 99 to 100.5 °C.

Work on `Cc1cc(I)ccc1Nc1ccccc1-c1nnn[nH]1` [Example 208, (4-iodo-2-methyl-phenyl)-[2-(1H-tetrazol-5-yl)-phenyl]amine] yielded a melting point of 231 °C.

In the case of `O=C(NOCC1CC1)c1ccc(F)c(F)c1Nc1ccc(I)cc1Cl` [PD184352, 2-(2-chloro-4-iodophenylamino)-N-cyclopropylmethoxy-3,4-difluorobenzamide], the increase of apoptosis ([1]; MEK inhibitor alone, at 30 nM as printed) is reported as “about 5%” and the incidence in apoptosis ([1]; MEK inhibitor administered alone) is reported as ~18%.

With `CC(=O)O[C@H]1C(=O)[C@@]2(C)[C@H]([C@H](OC(=O)c3ccccc3)[C@]3(O)C[C@H](OC(=O)[C@H](O)[C@@H](NC(=O)c4ccccc4)c4ccccc4)C(C)=C1C3(C)C)[C@]1(OC(C)=O)CO[C@@H]1C[C@@H]2O` [paclitaxel] the incidence of apoptosis [2] was 41%, the increase of apoptosis ([1]; paclitaxel alone at 30 nM) was “about 9%” and the increase of apoptosis ([1]; paclitaxel alone at 100 nM) was “about 18%”. For the same molecule, the incidence in apoptosis ([1]; paclitaxel at 100 nM alone) was ~11%.
